What follows are compounds tested on β-catenin-TCF-mediated reporter transcription activity in Colo 205 cells (assay: Colo 205 reporter assay (TCF/LEF luciferase)). Details: Colo 205 TCF/LEF luciferase reporter, five hours after addition of compound; read-out: TCF reporter Colo205 IC50.
Type: cell-based
Summary of the method: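 Luciferase signal from a TCF/LEF-driven reporter, stably integrated in Colo 205 colon cancer cells, was measured 5 h after compound addition.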

Row | IC50 | SMILES
1 | 300 to 1000 nM | COCC1(C)C(=O)Nc2c(C)nc(N[C@H]3C[C@H](Oc4cc(F)c(F)c(F)c4)C3)nc2N1C (relative stereo) [Compound 720, 7-(methoxymethyl)-4,7,8-trimethyl-2-((trans-3-(3,4,5-trifluorophenoxy)cyclobutyl)amino)-7,8-dihydropteridin-6(5H)-one]

Same assay, conditions: Homo sapiens, COLO 205, 5 h, Colo 205 TCF/LEF luciferase reporter, five hours after addition of compound; read-out: TCF reporter Colo205 IC50

Row | IC50 | SMILES
2 | 300 to 1000 nM | Cc1nc(NCc2cnn(Cc3ccc(OC(C)C)nc3)c2)nc2c1N(C)C(=O)[C@H](C)N2C [Compound 129, (7S)-2-(((1-((6-isopropoxypyridin-3-yl)methyl)-1H-pyrazol-4-yl)methyl)amino)-4,5,7,8-tetramethyl-7,8-dihydropteridin-6(5H)-one]
3 | < 300 nM | Cc1nc(NCc2cnn(Cc3ccc(C#N)cc3)c2)nc2c1NC(=O)[C@H](C)N2C [Compound 55, (7S)-4-((4-(((4,7,8-trimethyl-6-oxo-5,6,7,8-tetrahydropteridin-2-yl)amino)methyl)-1H-pyrazol-1-yl)methyl)benzonitrile]
4 | < 300 nM | COc1ncc(Cn2cc(CNc3nc(C)c4c(n3)N(C)[C@@H](C)C(=O)N4)cn2)cc1C(F)(F)F [Compound 215, (7S)-2-(((1-((6-methoxy-5-(trifluoromethyl)pyridin-3-yl)methyl)-1H-pyrazol-4-yl)methyl)amino)-4,7,8-trimethyl-7,8-dihydropteridin-6(5H)-one]
5 | < 300 nM | Cc1nc(NCc2cnn(Cc3ccc(F)cn3)c2)nc2c1NC(=O)[C@H](C(C)C)N2C [Compound 454, (S)-2-(((1-((5-fluoropyridin-2-yl)methyl)-1H-pyrazol-4-yl)methyl)amino)-7-isopropyl-4,8-dimethyl-7,8-dihydropteridin-6(5H)-one]
6 | ≥ 5000 nM | C[C@H]1C(=O)Nc2cnc(NCc3ccc(-c4ccc(F)cc4)o3)nc2N1C [Compound 43, (7S)-2-(((5-(4-fluorophenyl)furan-2-yl)methyl)amino)-7,8-dimethyl-7,8-dihydropteridin-6(5H)-one]
7 | < 300 nM | Cc1nc(N[C@H]2C[C@@H](COc3ccc(F)cc3Cl)C2)nc2c1NC(=O)[C@H](C)N2C [Compound 282, (7S)-2-((cis-3-((2-chloro-4-fluorophenoxy)methyl)cyclobutyl)amino)-4,7,8-trimethyl-7,8-dihydropteridin-6(5H)-one]
8 | < 300 nM | CC(C)c1cccc(Cn2cc(CNc3ncc4c(n3)N(C)[C@@H](C)C(=O)N4)cn2)c1 [Compound 81, (7S)-2-(((1-(3-isopropylbenzyl)-1H-pyrazol-4-yl)methyl)amino)-7,8-dimethyl-7,8-dihydropteridin-6(5H)-one]
9 | ≥ 5000 nM | Cc1nc(N[C@H]2C[C@@H](NC(=O)NC3CCC(F)(F)CC3)C2)nc2c1NC(=O)[C@H](C(C)C)N2C [Compound 526, 1-(4,4-difluorocyclohexyl)-3-(cis-3-(((S)-7-isopropyl-4,8-dimethyl-6-oxo-5,6,7,8-tetrahydropteridin-2-yl)amino)cyclobutyl)urea]
10 | ≥ 5000 nM | Cc1nc(N[C@H]2C[C@H](NC(=O)NC3CCC(F)(F)CC3)C2)nc2c1NC(=O)[C@H](C(C)C)N2C [Compound 524, 1-(4,4-difluorocyclohexyl)-3-(trans-3-(((S)-7-isopropyl-4,8-dimethyl-6-oxo-5,6,7,8-tetrahydropteridin-2-yl)amino)cyclobutyl)urea]
11 | 300 to 1000 nM | Cc1nc(N[C@H]2C[C@H](Oc3ccc(C(F)(F)F)nc3)C2)nc2c1NC(=O)C1(CCOC1)N2C (relative stereo) [Compound 689, 4′,8′-dimethyl-2′-((trans-3-((6-(trifluoromethyl)pyridin-3-yl)oxy)cyclobutyl)amino)-4,5,5′,8′-tetrahydro-2H,6′H-spiro[furan-3,7′-pteridin]-6′-one]
12 | < 300 nM | Cc1nc(N[C@H]2C[C@@H](NC(=O)Nc3cc(F)c(F)cc3F)C2)nc2c1NC(=O)[C@H](C)N2C [Compound 477, 1-(2,4,5-trifluorophenyl)-3-(cis-3-(((S)-4,7,8-trimethyl-6-oxo-5,6,7,8-tetrahydropteridin-2-yl)amino)cyclobutyl)urea]
13 | < 300 nM | Cc1nc(NC2CN(C(=O)COc3ccccc3C(F)(F)F)C2)nc2c1NC(=O)[C@H](C(C)C)N2C [Compound 612, (S)-7-isopropyl-4,8-dimethyl-2-((1-(2-(2-(trifluoromethyl)phenoxy)acetyl)azetidin-3-yl)amino)-7,8-dihydropteridin-6(5H)-one]
14 | 300 to 1000 nM | Cc1nc(N[C@@H]2CC[C@@H](N(C)c3ccc(C(F)(F)F)cc3)C2)nc2c1NC(=O)[C@H](C(C)C)N2C [Compound 504, (S)-7-isopropyl-4,8-dimethyl-2-(((1R,3R)-3-(methyl(4-(trifluoromethyl)phenyl)amino)cyclopentyl)amino)-7,8-dihydropteridin-6(5H)-one]
15 | 1000 to 5000 nM | Cc1nc(NCc2cnn(C[C@@H](O)c3ccc(F)cc3)c2)nc2c1NC(=O)[C@H](C)N2C [Compound 131, (7S)-2-[[1-[(2S)-2-(4-fluorophenyl)-2-hydroxy-ethyl]pyrazol-4-yl]methylamino]-4,7,8-trimethyl-5,7-dihydropteridin-6-one]
16 | 1000 to 5000 nM | COc1ccc(O[C@H]2C[C@H](Nc3nc(C)c4c(n3)N(C)[C@@H](C)C(=O)N4C)C2)c(F)c1 [Compound 355, (7S)-2-((trans-3-(2-fluoro-4-methoxyphenoxy)cyclobutyl)amino)-4,5,7,8-tetramethyl-7,8-dihydropteridin-6(5H)-one]
17 | < 300 nM | CO[C@H](C)[C@H]1C(=O)Nc2c(C)nc(N[C@H]3C[C@@H](Cn4nccc4C(F)(F)F)C3)nc2N1C [Compound 588, (S)-7-((R)-1-methoxyethyl)-4,8-dimethyl-2-((cis-3-((5-(trifluoromethyl)-1H-pyrazol-1-yl)methyl)cyclobutyl)amino)-7,8-dihydropteridin-6(5H)-one]
18 | ≥ 5000 nM | COc1ccc(O[C@H]2C[C@H](Nc3nc(C)c4c(n3)N(C)[C@@H](C)C(=O)N4C)C2)cc1 [Compound 343, (7S)-2-((trans-3-(4-methoxyphenoxy)cyclobutyl)amino)-4,5,7,8-tetramethyl-7,8-dihydropteridin-6(5H)-one]
19 | 300 to 1000 nM | Cc1nc(N[C@H]2C[C@H](Nc3ccc(C(F)(F)F)cn3)C2)nc2c1NC(=O)[C@H](C(C)C)N2C [Compound 533, (S)-7-isopropyl-4,8-dimethyl-2-((trans-3-((5-(trifluoromethyl)pyridin-2-yl)amino)cyclobutyl)amino)-7,8-dihydropteridin-6(5H)-one]
20 | ≥ 5000 nM | COc1ccc(O[C@H]2C[C@H](Nc3nc(C)c4c(n3)N(C)[C@@H](C)C(=O)N4C)C2)cc1OC [Compound 353, (7S)-2-((trans-3-(3,4-dimethoxyphenoxy)cyclobutyl)amino)-4,5,7,8-tetramethyl-7,8-dihydropteridin-6(5H)-one]
21 | < 300 nM | CCC[C@H]1C(=O)Nc2c(C)nc(NCc3cnn(Cc4ccc(C(F)(F)F)nc4)c3)nc2N1C [Compound 220, (7S)-4,8-dimethyl-7-propyl-2-(((1-((6-(trifluoromethyl)pyridin-3-yl)methyl)-1H-pyrazol-4-yl)methyl)amino)-7,8-dihydropteridin-6(5H)-one]
22 | 300 to 1000 nM | Cc1nc(N[C@H]2C[C@@H](COc3ccc4c(c3)OCO4)C2)nc2c1NC(=O)[C@H](C(C)C)N2C [Compound 580, (S)-2-((cis-3-((benzo[d][1,3]dioxol-5-yloxy)methyl)cyclobutyl)amino)-7-isopropyl-4,8-dimethyl-7,8-dihydropteridin-6(5H)-one]
23 | < 300 nM | Cc1nc(N[C@@H]2CC[C@H](Nc3cnc(C(F)(F)F)cn3)C2)nc2c1NC(=O)[C@H](C(C)C)N2C [Compound 735, (S)-7-isopropyl-4,8-dimethyl-2-(((1R,3S)-3-((5-(trifluoromethyl)pyrazin-2-yl)amino)cyclopentyl)amino)-7,8-dihydropteridin-6(5H)-one]
24 | ≥ 5000 nM | Cc1nc(NC2CN(C(=O)[C@H]3CCCO3)C2)nc2c1NC(=O)[C@H](C(C)C)N2C [Compound 636, (S)-7-isopropyl-4,8-dimethyl-2-((1-((R)-tetrahydrofuran-2-carbonyl)azetidin-3-yl)amino)-7,8-dihydropteridin-6(5H)-one]
25 | < 300 nM | Cc1nc(NCc2cnn(CCC3CCCC3)c2)nc2c1NC(=O)[C@H](C)N2C [Compound 133, (7S)-2-(((1-(2-cyclopentylethyl)-1H-pyrazol-4-yl)methyl)amino)-4,7,8-trimethyl-7,8-dihydropteridin-6(5H)-one]
26 | < 300 nM | Cc1nc(NCc2cnn(Cc3ccc(C(C)(C)C#N)nc3)c2)nc2c1NC(=O)[C@H](C(C)C)N2C [Compound 470, (S)-2-(5-((4-(((7-isopropyl-4,8-dimethyl-6-oxo-5,6,7,8-tetrahydropteridin-2-yl)amino)methyl)-1H-pyrazol-1-yl)methyl)pyridin-2-yl)-2-methylpropanenitrile]
27 | 300 to 1000 nM | CO[C@H](C)[C@H]1C(=O)N(C)c2cnc(NCc3cnn(Cc4ccc(F)cc4)c3)nc2N1C [Compound 20, (7S)-2-(((1-(4-fluorobenzyl)-1H-pyrazol-4-yl)methyl)amino)-7-((R)-1-methoxyethyl)-5,8-dimethyl-7,8-dihydropteridin-6(5H)-one]

Row | SMILES | IC50
28 | Cc1nc(N[C@H]2C[C@H](Oc3cc(F)c(F)c(F)c3)C2)nc2c1NC(=O)[C@H](COC(C)(C)C)N2C [Compound 674, (S)-7-(tert-butoxymethyl)-4,8-dimethyl-2-((trans-3-(3,4,5-trifluorophenoxy)cyclobutyl)amino)-7,8-dihydropteridin-6(5H)-one] | < 300 nM

Same assay, conditions: Homo sapiens, COLO 205, 5 h, Colo 205 cells with stably transfected TCF/LEF luciferase reporter; five hours after addition of compound; read-out: TCF reporter Colo205

Row | IC50 | SMILES
29 | < 300 nM | [2H]C([2H])([2H])N1c2nc(NCc3cnn(Cc4ccc(C(F)(F)F)nc4)c3)nc(C)c2NC(=O)[C@@H]1C [Compound 400, (7S)-4,7-dimethyl-8-(methyl-d3)-2-(((1-((6-(trifluoromethyl)pyridin-3-yl)methyl)-1H-pyrazol-4-yl)methyl)amino)-7,8-dihydropteridin-6(5H)-one]
